In US11286271B2, “Iridium (III) complexes containing N-heterocyclic carbene ligand, synthesis, and their use thereof in cancer treatment” (The University of Hong Kong, priority 2018, dated 2022):

Experiments:
[1] = tested on: NCI-H460 lung cancer cells; experiment: Cytotoxicity and photocytotoxicity, MTT assay, NCI-H460 in dark or under visible light; assay type: cell-based, human; conditions: for PI = IC50(dark)/IC50(light): NCI-H460, phototoxicity index
Method: FIG. 12A-12G. Plots of cell viability of NCI-H460 lung cancer cells upon 72 h treatment with the iridium(III) porphyrin complexes and cis-platin in dark or under light irradiation (2.8 mW cm^−2 for 1 h).
NCI-H460 lung cancer cells incubated with the complexes were exposed to a low dose of visible light irradiation (2.8 mW cm^−2) for 1 h. […] The cytotoxicity of [Ir^III(oep)Cl(CO)] was also evaluated for comparison.

[2] = Singlet oxygen generation quantum yield from 1O2 emission; assay type: physicochemical; conditions: oxygen-saturated CHCl3, referenced to H2tpp
[3] = in CHCl3, reference standard; cited from earlier work
[4] = tested on: HepG2; experiment: In vitro cytotoxicity, MTT assay, HepG2; assay type: cell-based, human; conditions: 72 h incubation
[5] = tested on: MCF-7; experiment: In vitro cytotoxicity, MTT assay, MCF-7; assay type: cell-based, human; conditions: 72 h incubation
[6] = Lipophilicity, n-octanol / saline partition; assay type: physicochemical; conditions: n-octanol / saline solution (0.9% w/v), by amount of iridium
[7] = tested on: panel of human cancer cell lines; experiment: Cytotoxicity towards a panel of human cancer cell lines; conditions: summary of Table 2
[8] = tested on: NCI-H460 human non-small cell lung cancer xenografts; experiment: In vivo antitumor activity, intravenous injection, NCI-H460 xenograft; conditions: 3 mg/kg intravenous thrice weekly, 16-day treatment
Method: (A) Tumor volume and (B) body weight of mice. Data are expressed as the mean±standard error; *p<0.05.
Nude mice bearing NCI-H460 human non-small cell lung cancer xenografts were administered 102 (3 mg/kg) via intravenous injection thrice weekly.

[9] = tested on: NCI-H460 lung cancer cells; experiment: Cellular ROS generation by DCF fluorescence (H2DCF-DA probe); assay type: cell-based, human; conditions: 1 μM, 2 h, visible light irradiation
Method: (A) Generation of ROS examined by DCF fluorescence measurement in NCI-H460 cells treated with or without iridium(III) porphyrin complexes (1 μM) for 2 h with or without irradiation by visible light.
To examine the relationship between photocytotoxicity and the photosensitizing properties of the complexes, we measured the cellular reactive oxygen species (ROS) generation using the ROS probe H2DCF-DA after treatment of cancer cells with the iridium(III) porphyrin complexes.

[10] = tested on: NCI-H460 cells; experiment: Apoptosis by annexin-V-FITC/propidium iodide flow cytometry; assay type: cell-based, human; conditions: 0.1 μM
Source text: (§1) FIGS. 8A-8C. […] (A) Apoptosis/necrosis in NCI-H460 cells as examined by flow cytometry of annexin-V-FITC/propidium iodide-stained cells. (B) Cell cycle progression in NCI-H460 cells as examined by flow cytometry. (C) Inhibition of angiogenesis of MS-1 endothelial cells.
(§2) The other two groups of mice received the same treatment without irradiation as a control.

[11] = tested on: NCI-H460 cells; experiment: Cell cycle progression by flow cytometry; assay type: cell-based, human; conditions: 0.1 μM
Source text: as §1, §2

[12] = tested on: MS-1 endothelial cells; experiment: Inhibition of endothelial cell tube formation (angiogenesis); assay type: cell-based; conditions: 0.1 μM
Source text: as §1, §2

[13] = tested on: NCI-H460 lung cancer xenografts; conditions: 3.0 mg/kg intratumoral
Source text: FIGS. 9A-9D. […] (A) Tumor volume. (B) Body weight of mice. (C) Tumor weight after the experiment. […] (D) Photo of tumors of each group after treatment for 15 days. Data are expressed as the mean±standard error; **p<0.01.
as §2

[14] = tested on: peptide ([…]) from thioredoxin (Trx); experiment: Photoinduced oxidation of Trx model peptide by ESI-MS/MS; assay type: biochemical; conditions: peptide 20 μM, complex 10 μM, light irradiation 1 h
Source text: A peptide ([sequence]) from thioredoxin (Trx) was employed as a model to investigate the possible oxidative modification sites by electrospray ionization tandem mass spectrometry (ESI-MS/MS).

[15] = tested on: NCI-H460 cells; experiment: Subcellular localization by confocal microscopy imaging; conditions: 1 μM, 2 h, NCI-H460, ER-Tracker green

## N.N.[Cl][Pt][Cl] [Cisplatin]
[1]
  PI = IC50(dark)/IC50(light): 0.72
[1]; listed as cisplatin
  PI = IC50(dark)/IC50(light): < 1

## [Ir^III(ttp)(IMe)2](ORf) [Complex 101]
[2]
  Quantum yield of singlet oxygen generation (Φso): 0.64

## [Ir^III(oep)(I^iPr)2](PF6) [Complex 103]
[1]; NCI-H460, visible light 2.8 mW cm^−2, 1 h
  IC50 upon light irradiation, in words: nanomolar

## C1=Cc2nc1c(-c1ccccc1)c1ccc([nH]1)c(-c1ccccc1)c1nc(c(-c3ccccc3)c3ccc([nH]3)c2-c2ccccc2)C=C1 [Complex H2tpp, H2tpp]
[3]
  Quantum yield of singlet oxygen generation (Φso), reference: 0.55

## CCC1=C(CC)C2=NC1=Cc1c(CC)c(CC)c3[n]1[Ir+][n]1c(c(CC)c(CC)c1=CC1=NC(=C3)C(CC)=C1CC)=C2.F[B-](F)(F)F.[C-]#[N+]c1ccc(OC)cc1.[C-]#[N+]c1ccc(OC)cc1 [[Ir^III(ope)(CNPhOMe)2](BF4)]
[4]
  IC50: > 100 µM
[5]
  IC50: > 100 µM
[1]
  PI = IC50(dark)/IC50(light): 24.2
[6]
  Log P: 2.81
[7]
  Cytotoxicity / IC50 in words, panel of human cancer cell lines: reduced cytotoxicity

## [Ir^III(oep)Cl(CO)]
[1]
  PI = IC50(dark)/IC50(light): >2.5
[1]; dark, MTT assay, 72 h
  IC50: > 50 µM
[6]
  Log P: 2.38

## [Ir^III(oep)(IMe)2](OTf) [Complex 102]
[8]
  Toxicity incl. body weight loss and death: without apparent toxicity
  Tumor size reduction: 41%
[9]
  Elevation in ROS levels: 10 fold
[10]; dark
  Proportion of cells undergoing apoptotic cell death, without irradiation: 5.9%
[10]; visible light irradiation
  Proportion of cells undergoing apoptotic cell death, light irradiation: 81.7%
[11]; dark (increase from 59.6%)
  G0/G1-population: 66.3%
[11]; visible light irradiation
  sub-G1 population, visible light irradiation: 96.9%
[11]; without light
  sub-G1 population, before irradiation: 2.2%
[12]; dark
  MS-1 cell tube formation, dark: moderate inhibition
[12]; light irradiation
  MS-1 cell tube formation, light irradiation: completely abrogated
[13]; after 15 days
  Tumor weight, photoirradiation group vs dark control group: much lower
[13]; with or without irradiation, 15 days
  Changes in body weight: negligible changes in body weight
[2]
  Quantum yield of singlet oxygen generation (Φso): 0.88
[14]
  Oxidative modification of Trx peptide: undergo oxidative modifications
[15]
  Pearson's correlation coefficient (R) with ER-Tracker: 0.903
